Experimental data: patent publication US6737383B1, “Herbicidal oxadiazolidines” (priority 1999, dated 2004)

Legend:
cocklebur = assay: Test B pre/postemergence cocklebur; type: in vivo, Xanthium strumarium
Outline: (§1)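 Test chemicals in a non-phytotoxic solvent mixture with surfactant were sprayed preemergence onto planted seeds and postemergence onto plants 2 to 18 cm tall (1- to 4-leaf stage). After twelve to sixteen days in a greenhouse, injury was visually rated against untreated controls from 0 (no effect) to 10 (complete control).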

rape = assay: Test B pre/postemergence rape; type: in vivo, Brassica napus
Outline: as §1

blackgrass = assay: Test B pre/postemergence blackgrass; type: in vivo, Alopecurus myosuroides
Outline: as §1

crabgrass = assay: Test B pre/postemergence crabgrass; type: in vivo, Digitaria sanguinalis
Outline: as §1

giant foxtail = assay: Test B pre/postemergence giant foxtail; type: in vivo, Setaria faberii
Outline: as §1

wild oat = assay: Test B pre/postemergence wild oat; type: in vivo, Avena fatua
Outline: as §1

morningglory = assay: Test B pre/postemergence morningglory; type: in vivo, Ipomoea hederacea
Outline: as §1

surinam grass = assay: Test B pre/postemergence surinam grass; type: in vivo, Brachiaria decumbens
Outline: as §1

sugar beet = assay: Test B pre/postemergence sugar beet; type: in vivo, Beta vulgaris
Outline: as §1

purple nutsedge = assay: Test B pre/postemergence purple nutsedge; type: in vivo, Cyperus rotundus
Outline: as §1

pigweed = assay: Test B pre/postemergence pigweed; type: in vivo, Amaranthus retroflexus
Outline: as §1

corn = assay: Test B pre/postemergence corn; type: in vivo, Zea mays
Outline: as §1

soybean = assay: Test B pre/postemergence soybean; type: in vivo, Glycine max
Outline: as §1

velvetleaf = assay: Test B pre/postemergence velvetleaf; type: in vivo, Abutilon theophrasti
Outline: as §1

bedstraw = assay: Test B pre/postemergence bedstraw; type: in vivo, Galium aparine
Outline: as §1

wheat = assay: Test B pre/postemergence wheat; type: in vivo, Triticum aestivum
Outline: as §1

[1] = Postemergence, Rate 62 g/ha, scale of 0 to 10, 0 is no effect, 10 is complete control
[2] = Postemergence, Rate 125 g/ha, scale 0 to 10, 0 is no effect, 10 is complete control
[3] = Postemergence, Rate 500 g/ha, scale 0 to 10, 0 is no effect, 10 is complete control
[4] = Preemergence, Rate 125 g/ha, scale 0 to 10, 0 is no effect, 10 is complete control
[5] = Rate 250 g/ha, Postemergence, scale of 0 to 10 where 0 is no effect and 10 is complete control
[6] = Preemergence, Rate 62 g/ha, scale 0 to 10 (0 no effect, 10 complete control)
[7] = Preemergence, Rate 500 g/ha, scale of 0 to 10 where 0 is no effect and 10 is complete control

CC(C)N(C(=O)n1oc(=O)n(C(C)C(=O)c2ccccc2)c1=O)c1ccc(Cl)cc1 (stereo not drawn) [Compound 541]
0: Cocklebur plant response rating (cocklebur; [1]) | Cocklebur plant response rating (cocklebur; [2]) | Cocklebur plant response rating (cocklebur; [4]) | Rape plant response rating (rape; [1]) | Rape plant response rating (rape; [2]) | Rape plant response rating (rape; [6]) | Rape plant response rating (rape; [4]) | Rape plant response rating (0 to 10 scale) (rape; Preemergence, Rate 250 g/ha) | Rape plant response rating (rape; [7]) | Blackgrass plant response rating (blackgrass; [1]) | Blackgrass plant response rating (blackgrass; [2]) | Plant response rating, Blackgrass (blackgrass; [3]) | Blackgrass plant response rating (blackgrass; [6]) | Blackgrass plant response rating (blackgrass; [4]) | Blackgrass plant response rating (0 to 10 scale) (blackgrass; Preemergence, Rate 250 g/ha) | Plant response rating, Blackgrass (blackgrass; [5]) | Crabgrass plant response rating (crabgrass; [1]) | Crabgrass plant response rating (crabgrass; [2]) | Plant response rating, Crabgrass (crabgrass; [5]) | Giant foxtail plant response rating (giant foxtail; [1]) | Giant foxtail plant response rating (giant foxtail; [2]) | Plant response rating, Giant foxtail (giant foxtail; [5]) | Wild oats plant response rating (wild oat; [1]) | Wild oats plant response rating (wild oat; [2]) | Wild oats plant response rating (wild oat; [6]) | Wild oats plant response rating (wild oat; [4]) | Plant response rating, Wild oats (wild oat; [5]) | Morningglory plant response rating (morningglory; [1]) | Morningglory plant response rating (morningglory; [6]) | Morningglory plant response rating (morningglory; [4]) | Morningglory plant response rating (0 to 10 scale) (morningglory; Preemergence, Rate 250 g/ha) | Morningglory plant response rating (morningglory; [7]) | B. signalgrass plant response rating (surinam grass; [1]) | B. signalgrass plant response rating (surinam grass; [2]) | B. signalgrass plant response rating (surinam grass; [6]) | B. signalgrass plant response rating (surinam grass; [4]) | B. signalgrass plant response rating (0 to 10 scale, 0 is no effect, 10 is complete control) (surinam grass; Preemergence, Rate 250 g/ha) | Plant response rating, B. signalgrass (surinam grass; [5]) | Sugarbeets plant response rating (sugar beet; [1]) | Sugarbeets plant response rating (sugar beet; [2]) | Sugarbeets plant response rating (sugar beet; [6]) | Sugarbeets plant response rating (sugar beet; [4]) | Sugarbeets plant response rating (0 to 10 scale) (sugar beet; Preemergence, Rate 250 g/ha) | Plant response rating, Sugarbeets (sugar beet; [5]) | Nutsedge plant response rating (purple nutsedge; [1]) | Nutsedge plant response rating (purple nutsedge; [2]) | Plant response rating, Nutsedge (purple nutsedge; [3]) | Nutsedge plant response rating (purple nutsedge; [4]) | Nutsedge plant response rating (0 to 10 scale) (purple nutsedge; Preemergence, Rate 250 g/ha) | Nutsedge plant response rating (purple nutsedge; [7]) | Plant response rating, Nutsedge (purple nutsedge; [5]) | Redroot pigweed plant response rating (pigweed; [1]) | Redroot pigweed plant response rating (pigweed; [2]) | Redroot pigweed plant response rating (pigweed; [6]) | Redroot pigweed plant response rating (pigweed; [4]) | Redroot pigweed plant response rating (0 to 10 scale) (pigweed; Preemergence, Rate 250 g/ha) | Redroot pigweed plant response rating (pigweed; [7]) | Plant response rating, Redroot pigweed (pigweed; [5]) | Corn plant response rating (corn; [1]) | Corn plant response rating (corn; [2]) | Plant response rating, Corn (corn; [3]) | Corn plant response rating (corn; [6]) | Corn plant response rating (corn; [4]) | Corn plant response rating (0 to 10 scale) (corn; Preemergence, Rate 250 g/ha) | Corn plant response rating (corn; [7]) | Plant response rating, Corn (corn; [5]) | Soybean plant response rating (soybean; [1]) | Soybean plant response rating (soybean; [2]) | Soybean plant response rating (soybean; [6]) | Soybean plant response rating (soybean; [4]) | Soybean plant response rating (0 to 10 scale) (soybean; Preemergence, Rate 250 g/ha) | Soybean plant response rating (soybean; [7]) | Velvetleaf plant response rating (velvetleaf; [1]) | Velvetleaf plant response rating (velvetleaf; [2]) | Plant response rating, Velvetleaf (velvetleaf; [3]) | Velvetleaf plant response rating (velvetleaf; [6]) | Velvetleaf plant response rating (velvetleaf; [4]) | Velvetleaf plant response rating (0 to 10 scale) (velvetleaf; Preemergence, Rate 250 g/ha) | Velvetleaf plant response rating (velvetleaf; [7]) | Plant response rating, Velvetleaf (velvetleaf; [5]) | Bedstraw plant response rating (bedstraw; [1]) | Bedstraw plant response rating (bedstraw; [6]) | Bedstraw plant response rating (bedstraw; [4]) | Bedstraw plant response rating (0 to 10 scale) (bedstraw; Preemergence, Rate 250 g/ha) | Wheat plant response rating (wheat; [1]) | Wheat plant response rating (wheat; [2]) | Plant response rating, Wheat (wheat; [3]) | Wheat plant response rating (wheat; [6]) | Wheat plant response rating (wheat; [4]) | Plant response rating, Wheat (wheat; [5])
5: Plant response rating, Cocklebur (cocklebur; [3]) | Plant response rating, Cocklebur (cocklebur; [5]) | Crabgrass plant response rating (crabgrass; [6]) | Crabgrass plant response rating (crabgrass; [4]) | Wild oats plant response rating (0 to 10 scale) (wild oat; Preemergence, Rate 250 g/ha) | Wild oats plant response rating (wild oat; [7]) | B. signalgrass plant response rating (surinam grass; [7]) | Plant response rating, Bedstraw (bedstraw; [3]) | Plant response rating, Bedstraw (bedstraw; [5])
1: Morningglory plant response rating (morningglory; [2]) | Plant response rating, Morningglory (morningglory; [5]) | Plant response rating, Soybean (soybean; [5])
10: Crabgrass plant response rating (0 to 10 scale) (crabgrass; Preemergence, Rate 250 g/ha) | Crabgrass plant response rating (crabgrass; [7]) | Giant foxtail plant response rating (giant foxtail; [4]) | Giant foxtail plant response rating (0 to 10 scale) (giant foxtail; Preemergence, Rate 250 g/ha) | Giant foxtail plant response rating (giant foxtail; [7])
3: Plant response rating, Rape (rape; [3]) | Plant response rating, Rape (rape; [5]) | Plant response rating, Crabgrass (crabgrass; [3]) | Plant response rating, Morningglory (morningglory; [3]) | Plant response rating, Redroot pigweed (pigweed; [3]) | Bedstraw plant response rating (bedstraw; [7]) | Wheat plant response rating (0 to 10 scale) (wheat; Preemergence, Rate 250 g/ha) | Wheat plant response rating (wheat; [7])
2: Blackgrass plant response rating (blackgrass; [7]) | Plant response rating, Giant foxtail (giant foxtail; [3]) | Plant response rating, Wild oats (wild oat; [3]) | Plant response rating, B. signalgrass (surinam grass; [3]) | Sugarbeets plant response rating (sugar beet; [7]) | Plant response rating, Soybean (soybean; [3])
4: Plant response rating, Sugarbeets (sugar beet; [3])
7: Giant foxtail plant response rating (giant foxtail; [6])
